From US10954193B2 (Vanderbilt University, priority 2013, dated 2021)
Like-named read-outs stand apart in the source and are kept apart here.

Experiments:
[1] = target: Bcl-xL (residues 1-209, loop 45-86 deleted) (Homo sapiens (Human), UniProt Q07817, DEL45-86); test: Bak peptide binding assay, fluorescence polarization anisotropy competition (FITC-Bak), Bcl-xL selectivity; conditions: Table 4; FITC-Bak peptide 10 nM, Bcl-xL 4 nM
Description: (§1) Bak Peptide Binding Assay
(§2) Compound affinity was measured using a fluorescence polarization anisotropy competition assay. Anisotropy measurements were carried out in 384-well, black, flat-bottom plates (Greiner Bio-one, Monroe, N.C., USA). The assay was run using a fluorescein isothiocyanate-labeled BH3 peptide derived from Bak (FITC-AHx-[…]-NH2) that was purchased from GenScript (Piscataway, N.J.) at >95% purity and used without further purification. 10 nM FITC-Bak peptide and 14 nM recombinant Mcl-1 (residues 172-327) were added to assay buffer (3 mM dithiothreitol, 50 mM NaCl, 20 mM Tris, pH 7.5). For selectivity assays, 40 nM Bcl-2 (residues 1-207^A96T,G110R, Δ35-91, replaced with Bcl-xL35-50) or 4 nM Bcl-xL (residues 1-209, loop 45-86 deleted) were incubated with 10 nM FITC-Bak in assay buffer.
(§3) Compounds are diluted in DMSO in a 10-point, 3-fold serial dilution scheme. 2.5 uL compound is added to 47.5 uL of assay buffer containing FITC-Bak and protein, for a final DMSO concentration of 5% and a top concentration of 20 uM. […] The plate was mixed and incubated for 90 minutes at room temperature. Anisotropy is measured at excitation wavelength 480 nm and emission wavelength 535 nm using an EnVision Multi-label plate reader (PerkinElmer, Wellesley, Mass., USA). Fluorescence anisotropy is plotted against compound concentration to generate an IC50 (inhibitor concentration at which 50% of bound peptide is displaced) by fitting the data to a 4-parameter logistic model using XLFit software (Guildford, Surrey, UK). IC50 is converted to a binding dissociation constant (Ki value) according to the formula of Wang Z. FEBS Lett (1996) 3, 245: Ki=[I]50/([L]50/Kd+[P]0/Kd+1) where [I]50 is the concentration of the free inhibitor at 50% inhibition, [L]50 is the concentration of the free labeled ligand at 50% inhibition, [P]0 is the concentration of the free protein at 0% inhibition, Kd represents the dissociation constant of the FITC peptide probe.

[2] = target: recombinant Mcl-1 (residues 172-327) (Homo sapiens (Human), UniProt Q07820); test: Bak peptide binding assay, fluorescence polarization anisotropy competition (FITC-Bak), Mcl-1; conditions: FITC-Bak peptide 10 nM, Mcl-1 14 nM;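 further: displacement of labeled Bak peptide read by fluorescence anisotropy, 10-point threefold dilutions from 20 µM top dose in 5% DMSO, 90 min incubation at room temperature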
Description: Compound affinity was measured using a fluorescence polarization anisotropy competition assay. Anisotropy measurements were carried out in 384-well, black, flat-bottom plates (Greiner Bio-one, Monroe, N.C., USA). […] 10 nM FITC-Bak peptide and 14 nM recombinant Mcl-1 (residues 172-327) were added to assay buffer (3 mM dithiothreitol, 50 mM NaCl, 20 mM Tris, pH 7.5).

K562 [3] = test: Cellular viability assay, CellTiter-Glo, K562; assay type: cell-based; conditions: Homo sapiens, Table 6 viability assay (method: reduced serum, 1% FBS)
Description: (§4) Cellular Viability of a Human Tumor Cell Lines
(§5) Human cancer cell lines NCI-H23, K562, NCI-H929, and MV-4-11 were cultured in media supplemented with 10% fetal bovine serum (FBS). To evaluate compound effect on cellular proliferation, cells were plated at 1,000 cells/well in 96-well tissue culture plates in a total volume of 90 uL medium supplemented with 10% FBS (Sigma, Saint Louis, Mo.). 24 hours later, 10 uL of compound (in a 2-fold serial dilution) is added to the cells for a top concentration of 50 uM and a final DMSO concentration <1%. After 72 hours, cell number was measured using the CellTiter-Glo Luminescent assay according to manufacturer's recommendations (Promega, Madison, Wis.). A viability assay in reduced serum was also conducted. Cells were plated at 5,000 cells/well in 96-well plates in a total volume of 100 uL medium supplemented with 10% FBS (Sigma, Saint Louis, Mo.). 24 hours later, the medium was replaced with 90 uL medium containing 1% FBS and the assay conducted as described. EC50 values were determined by plotting growth against compound concentration in a 4-parameter logisitic model in XLFit.

NCI-H23 [4] = test: Cellular viability assay, CellTiter-Glo, NCI-H23; assay type: cell-based; conditions: Homo sapiens, Table 6 viability assay (method: reduced serum, 1% FBS)
Description: as §4, §5

MV-4-11 [5] = test: Cellular proliferation, CellTiter-Glo, MV-4-11; assay type: cell-based; conditions: Homo sapiens, MV4-11, 10% FBS, 72 hours, read-out: EC50 on cellular proliferation, NV-4-11
Description: as §4, §5

K562 [6] = test: Cellular proliferation, CellTiter-Glo, K562; assay type: cell-based; conditions: Homo sapiens, 10% FBS, 72 hours
Description: as §4, §5

NCI-H23 [7] = test: Cellular proliferation, CellTiter-Glo, NCI-H23; assay type: cell-based; conditions: Homo sapiens, 10% FBS, 72 hours
Description: as §4, §5

[8] = target: Bcl-2 (residues 1-207 A96T,G110R, Δ35-91, replaced with Bcl-xL35-50) (Homo sapiens (Human), UniProt P10415, DEL35-91/INS34DVEENRTEAPEGTESE); test: Bak peptide binding assay, fluorescence polarization anisotropy competition (FITC-Bak), Bcl-2 selectivity; conditions: Table 4; FITC-Bak peptide 10 nM, Bcl-2 40 nM
Description: as §1, §2, §3

MV-4-11 [9] = test: Cellular viability assay, CellTiter-Glo, MV-4-11; assay type: cell-based; conditions: Homo sapiens, MV4-11, Table 6 viability assay (method: reduced serum, 1% FBS), read-out: EC50 on cellular viability, NV-4-11
Description: as §4, §5

NCI-H929 = test: Cellular proliferation, CellTiter-Glo, NCI-H929; assay type: cell-based; conditions: Homo sapiens, 10% FBS, 72 hours
Description: as §4, §5

[10] = Table 3, binned ranges, read-out: Ki for inhibition of Mcl-1

Sequence of recombinant Mcl-1 (residues 172-327) (Q07820 172-327): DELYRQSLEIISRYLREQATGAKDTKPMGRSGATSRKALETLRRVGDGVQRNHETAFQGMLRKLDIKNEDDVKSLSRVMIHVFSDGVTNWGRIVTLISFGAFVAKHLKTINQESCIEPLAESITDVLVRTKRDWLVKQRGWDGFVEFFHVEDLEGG
Sequence of Bcl-xL (residues 1-209, loop 45-86 deleted) (Q07817 other isoform, or with tags, fused parts or gaps del 45-86): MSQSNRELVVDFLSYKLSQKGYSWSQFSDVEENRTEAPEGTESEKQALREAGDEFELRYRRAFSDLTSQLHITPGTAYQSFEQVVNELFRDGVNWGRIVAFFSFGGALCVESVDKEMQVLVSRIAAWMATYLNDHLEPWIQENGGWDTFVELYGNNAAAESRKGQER
Sequence of Bcl-2 (residues 1-207 A96T,G110R, Δ35-91, replaced with Bcl-xL35-50) (P10415 other isoform, or with tags, fused parts or gaps, stated change not applied): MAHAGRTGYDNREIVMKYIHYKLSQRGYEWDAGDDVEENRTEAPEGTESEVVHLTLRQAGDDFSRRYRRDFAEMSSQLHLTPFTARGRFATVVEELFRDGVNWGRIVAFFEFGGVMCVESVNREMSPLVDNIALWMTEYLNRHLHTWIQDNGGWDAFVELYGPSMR

| Ki [1] [µM] | Ki [2, 10] [µM] | Ki ([2]; Table 4, read-out: Ki Mcl-1) [µM] | EC50 (K562 [6]) [µM] | Structure (SMILES) | also measured |
| --- | --- | --- | --- | --- | --- |
| 10 | 0.101 to 0.299 | 0.36 |  | Cc1cc(OCCCc2cn(CCC(=O)NS(C)(=O)=O)c3cc(Cl)ccc23)cc(C)c1Cl [Example 20, 3-(6-chloro-3-(3-(4-chloro-3,5-dimethylphenoxy)propyl)-1H-indol-1-yl)-N-(methylsulfonyl)propanamide] |  |
| 7.9 | 0.101 to 0.299 | 0.17 |  | Cc1cc(OCCCc2c(C)n(CCC(=O)O)c3cc(Cl)ccc23)cc(C)c1Cl [Example 44, 3-(6-chloro-3-(3-(4-chloro-3,5-dimethylphenoxy)propyl)-2-methyl-1H-indol-1-yl)propanoic acid] |  |
|  | ≤ 0.1 |  |  | Cc1cc(OCCCc2c(C)n(CCC(=O)O)c3c(-c4ccnn4C)cccc23)cc(C)c1Cl [Example 70, 3-(3-(3-(4-chloro-3,5-dimethylphenoxy)propyl)-2-methyl-7-(1-methyl-1H-pyrazol-5-yl)-1H-indol-1-yl)propanoic acid] | EC50 (K562 [3]): 4.1 µM; EC50 (NCI-H23 [4]): 5.8 µM |
|  | ≤ 0.1 |  |  | Cc1ccncc1-c1cccc2c(CCCOc3cc(C)c(Cl)c(C)c3)c(C)n(CCC(=O)O)c12 [Example 71, 3-(3-(3-(4-chloro-3,5-dimethylphenoxy)propyl)-2-methyl-7-(4-methylpyridin-3-yl)-1H-indol-1-yl)propanoic acid] | EC50 (K562 [3]): 7 µM; EC50 (NCI-H23 [4]): 9.9 µM |
|  | ≤ 0.1 |  | 21.2 | Cc1cc(OCCCc2c(C)n(CCC(=O)O)c3c(-c4c(C)n[nH]c4C)cccc23)cc(C)c1Cl [Example 74, 3-(3-(3-(4-chloro-3,5-dimethylphenoxy)propyl)-7-(3,5-dimethyl-1H-pyrazol-4-yl)-2-methyl-1H-indol-1-yl)propanoic acid] | EC50 (MV-4-11 [5]): 11.5 µM; EC50 (NCI-H23 [7]): 19.8 µM; EC50 (K562 [3]): 2 µM; EC50 (NCI-H23 [4]): 5.4 µM |
| 7.9 | ≤ 0.1 | 0.007 | 17.1 | Cc1cc(OCCCc2c(C)n(CCC(=O)O)c3c(-c4c(C)nn(C)c4C)cccc23)cc(C)c1Cl [Example 76, 3-(3-(3-(4-chloro-3,5-dimethylphenoxy)propyl)-2-methyl-7-(1,3,5-trimethyl-1H-pyrazol-4-yl)-1H-indol-1-yl)propanoic acid] | EC50 (MV-4-11 [5]): 16.2 µM; Ki [8]: 7.1 µM; EC50 (MV-4-11 [9]): 2.8 µM |
|  | ≤ 0.1 |  | 10 | Cc1cc(OCCCc2c(C)n(CCC(=O)O)c3c(-c4c(C)nn(C(C)C)c4C)cccc23)cc(C)c1Cl [Example 78, 3-(3-(3-(4-chloro-3,5-dimethylphenoxy)propyl)-7-(1-isopropyl-3,5-dimethyl-1H-pyrazol-4-yl)-2-methyl-1H-indol-1-yl)propanoic acid] | EC50 (MV-4-11 [5]): 12.9 µM |
|  | ≤ 0.1 |  |  | Cc1cnccc1-c1cccc2c(CCCOc3cc(C)c(Cl)c(C)c3)c(C)n(CCC(=O)NS(C)(=O)=O)c12 [Example 83, 3-(3-(3-(4-chloro-3,5-dimethylphenoxy)propyl)-2-methyl-7-(3-methylpyridin-4-yl)-1H-indol-1-yl)-N-(methylsulfonyl)propanamide] | EC50 (MV-4-11 [9]): 1.9 µM |
| 9.3 | ≤ 0.1 | 0.011 |  | Cc1cc(OCCCc2c(C)n(Cc3ccc(C(=O)O)o3)c3c(-c4c(C)n[nH]c4C)cccc23)cc(C)c1Cl [Example 99, 5-((3-(3-(4-chloro-3,5-dimethylphenoxy)propyl)-7-(3,5-dimethyl-1H-pyrazol-4-yl)-2-methyl-1H-indol-1-yl)methyl)furan-2-carboxylic acid] | Ki [8]: 2.9 µM |
| 4.7 | ≤ 0.1 | 0.01 |  | Cc1cc(OCCCc2c(C)n(Cc3cccc(C(=O)O)c3)c3c(-c4c(C)n[nH]c4C)cccc23)cc(C)c1Cl [Example 100, 3-((3-(3-(4-chloro-3,5-dimethylphenoxy)propyl)-7-(3,5-dimethyl-1H-pyrazol-4-yl)-2-methyl-1H-indol-1-yl)methyl)benzoic acid] | Ki [8]: 1.2 µM |
|  | ≤ 0.1 |  | 24.8 | Cc1cc(OCCCc2c(C)n(CCC(=O)O)c3c(-c4c(C)nn(C)c4C)c(Cl)ccc23)cc(C)c1Cl [Example 104, 3-(6-chloro-3-(3-(4-chloro-3,5-dimethylphenoxy)propyl)-2-methyl-7-(1,3,5-trimethyl-1H-pyrazol-4-yl)-1H-indol-1-yl)propanoic acid] | EC50 (NCI-H929): 20 µM |
|  | ≤ 0.1 |  | 14.8 | Cc1cc(OCCCc2c(C(F)(F)F)n(Cc3ccc(CC(=O)O)cc3)c3c(-c4c(C)nn(C)c4C)cccc23)cc(C)c1Cl [Example 117, 2-(4-((3-(3-(4-chloro-3,5-dimethylphenoxy)propyl)-2-(trifluoromethyl)-7-(1,3,5-trimethyl-1H-pyrazol-4-yl)-1H-indol-1-yl)methyl)phenyl)acetic acid] | EC50 (NCI-H929): 8.8 µM |
|  | ≤ 0.1 |  |  | Cc1cc(OCCCc2c(C(F)(F)F)n(CCC(=O)O)c3ccccc23)cc(C)c1Cl [Example 135, 3-(3-(3-(4-chloro-3,5-dimethylphenoxy)propyl)-2-(trifluoromethyl)-1H-indol-1-yl)propanoic acid] |  |
